Experimental data reported in patent EP3730489A1, “HETEROARYL COMPOUNDS AS AGROCHEMICAL FUNGICIDES” (BASF SE, priority 2019, dated 2020).

Experiments:
Type in all cases: cell-based
Septoria tritici = experiment: Activity against leaf blotch on wheat caused by Septoria tritici (Septtr), microtiter plate test; conditions: relative growth vs active compound-free control (100%), measured at 405 nm 7 days after the inoculation
Method: (§1) The active compounds were formulated separately as a stock solution having a concentration of 10000 ppm in dimethyl sulfoxide.
3. Activity against leaf blotch on wheat caused by Septoria tritici (Septtr)
(§2) The stock solutions were mixed according to the ratio, pipetted onto a micro titer plate (MTP) and diluted with water to the stated concentrations. A spore suspension of Septoria tritici in an aqueous biomalt or yeast-bactopeptone-glycerine solution was then added. The plates were placed in a water vapor-saturated chamber at a temperature of 18°C. Using an absorption photometer, the MTPs were measured at 405 nm 7 days after the inoculation.
(§3) The measured parameters were compared to the growth of the active compound-free control variant (100%) and the fungus-free and active compound-free blank value to determine the relative growth in % of the pathogens in the respective active compounds.

Fusarium culmorum = experiment: Activity against Fusarium culmorum (Fusacu), microtiter plate test; conditions: relative growth vs active compound-free control (100%), measured at 405 nm 7 days after the inoculation; for activity at 31 ppm: Fusarium culmorum, 168 h
Method: as §1
4. Activity against Fusarium culmorum (Fusacu)
as §2, with “Fusarium culmorum” for “Septoria tritici”
as §3

Botrytis cinerea = experiment: Activity against the grey mold Botrytis cinerea in the microtiterplate test (Botrci); conditions: relative growth vs active compound-free control (100%), measured at 405 nm 7 days after the inoculation
Method: as §1
1. Activity against the grey mold Botrytis cinerea in the microtiterplate test (Botrci)
as §2, with “Botrci cinerea” for “Septoria tritici”, “yeast-bactopeptone-sodiumacetate” for “yeast-bactopeptone-glycerine”
as §3

Compound	growth (%) at 31ppm Septtr (Septoria tritici) [%]	growth (%) at 31ppm Fusacu (Fusarium culmorum) [%]	growth (%) at 31ppm Botrci (Botrytis cinerea) [%]	activity at 31 ppm (Fusarium culmorum) [%]
3-[3-(trifluoromethyl)-2-thienyl]-1H-indole-5-carbonitrile [Example 1]	14	0	–	–
N#Cc1ccc2[nH]cc(-c3ocnc3C(F)(F)F)c2c1 [Example 2, 3-[4-(trifluoromethyl)oxazol-5-yl]-1H-indole-5-carbonitrile]	–	–	6	7
C#Cc1cnc2[nH]cc(-c3ocnc3C(F)(F)F)c2c1 [Example 6, 5-(5-ethynyl-1H-pyrrolo[2,3-b]pyridin-3-yl)-4-(trifluoromethyl)oxazole]	12	–	5	1
Fc1cnc2[nH]cc(-c3ocnc3C(F)(F)F)c2c1 [Example 8, 5-(5-fluoro-1H-pyrrolo[2,3-b]pyridin-3-yl)-4-(trifluoromethyl)oxazole]	–	–	–	6
Fc1cnc2[nH]cc(-c3ocnc3I)c2c1 [Example 9, 5-(5-fluoro-1H-pyrrolo[2,3-b]pyridin-3-yl)-4-iodooxazole]	–	–	–	11
Clc1ccsc1-c1c[nH]c2ccc(Br)cc12 [Example P1]	8	–	0	1
C#Cc1ccc2[nH]cc(-c3sccc3Cl)c2c1 [Example P2]	12	–	1	1
Brc1ccc2[nH]cc(-c3sccc3Br)c2c1 [Example P3]	0	–	0	0
N#Cc1ccc2[nH]cc(-c3sccc3Br)c2c1 [Example P4]	–	–	–	17
FC(F)Oc1ccc2[nH]cc(-c3sccc3C(F)(F)F)c2n1 [Example P5]	4	–	1	0
FC(F)(F)c1ncoc1-c1c[nH]c2ccc(Br)cc12 [Example P6]	2	–	1	–
C#Cc1cnc2[nH]cc(-c3ocnc3Br)c2c1 [Example P8]	15	–	–	0
C#Cc1cnc2[nH]cc(-c3ocnc3C(F)F)c2c1 [Example P10]	–	–	–	6
Fc1ncc2[nH]cc(-c3sccc3C(F)(F)F)c2n1 [Example P17]	–	–	–	14
